Tests used:
Format in all cases: cell-based, human
[1] = tested on: HUES8 cells, intestinal differentiation protocol; experiment: Intestine differentiation with cytoskeletal compounds; details: 1 μM for the entirety of stage 2
Experimental: (§1) For differentiation to other endodermal lineages, HUES8 stem cells were cultured and passaged normally. Differentiations were initiated 24 hours after seeding 24-well plates at 0.521×10^6 cells/cm^2. Protocols for exocrine pancreas, intestine, and liver were adapted, from literature. Either latrunculin A or nocodazole were added as indicated in each protocol. All three differentiation protocols used the same stage 1 to induce endoderm. Stage 1 (4 days): BE1 media+100 ng/mL Activin A+3 μM CHIR99021 for the first 24 hours, followed with 3 days of BE1 containing 100 ng/mL Activin A only.
Intestine Differentiation: Stage 2 (4 days): BE2 media+3 μM CHIR99021+500 ng/mL FGF4 (R&D Systems, 235-F4). Either 1 μM latrunculin A was added for the first 24 hours of this stage, or 1 μM nocodazole was added for the entirety of stage 2. Stage 3 (7 days): BE3 media+500 ng/mL R-spondin1 (R&D Systems, 4645-RS)+100 ng/mL EGF (R&D Systems, 236-EG)+200 nM LDN193189.

[2] = tested on: plated pancreatic progenitors; experiment: Single-cell RNA sequencing of plated pancreatic progenitors treated throughout stage 4; details: 5 μM nocodazole throughout stage 4
Experimental: Cells generated with the suspension protocol were single-cell dispersed with TrypLE from clusters at the end of stage 3 and seeded onto collagen 1 coated 24-well plates at 0.625×10^6 cells/cm^2. Either 0.5 μM latrunculin A or 5 μM nocodazole were added throughout the entirety of stage 4. At the end of stage 4, cells were single-cell dispersed, suspended in DMEM, and submitted to the Washington University Genome Technology Access Center. Library preparation was done using the Chromium Single Cell 3′ Library and Gel Bead Kit v2 (10× Genomics, 120237). Briefly, single cells were isolated in emulsions using a microfluidic platform, and each single cell emulsion was barcoded with a unique set of oligonucleotides. The GemCode Platform was used to carry out reverse transcription within each single cell emulsion, which was amplified to construct a library. The libraries were sequenced with paired-end reads of 26×98 primerbp using the Illumina HiSeq2500.
Seurat v2.0 was used to perform single cell RNA analyses. Duplicate cells and cells with high mitochondrial gene expression were filtered out using FilterCells (>9000 total genes and >5% mitochondrial genes for Untreated Control, >6000 genes and >6% mitochondrial genes for latrunculin A, >12000 genes and >4% mitochondrial genes for nocodazole). Each data set was normalized using global-scaling normalization. FindVariableGenes identified and removed outlier genes using scaled z-score dispersion. The datasets were then combined and a canonical correlation analysis (CCA) was performed with RunMultiCCA. AlignSubspace was used to align the CCA subspaces and generated a new dimension reduction for integrated analysis. Unsupervised TSNE plots were generated using RunTSNE, and the resulting clusters were defined and labeled using FindMarkers. VInPlot (Violin plots) and FeaturePlot (tsne plots) were used to visualize differences in gene expressions across each cluster and conditions.

[3] = tested on: HUES8 cells, hepatic differentiation protocol; experiment: Liver differentiation with cytoskeletal compounds; details: 1 μM for the first 24 hours of stage 3
Experimental: as §1
Liver Differentiation: Stage 2 (2 days): BE2 media+50 ng/mL KGF. Stage 3 (4 days): BE3 media+10 ng/mL bFGF+30 ng/mL BMP4 (R&D Systems, 314-BP). For the first 24 hours only, 2 μM retinoic acid and either 1 μM latrunculin A or 1 μM nocodazole were added. Stage 4 (5 days): BE3 media+20 ng/mL OSM (R&D Systems, 295-OM)+20 ng/mL HGF (R&D Systems, 294-HG)+100 nM dexamethasone (MilliporeSigma, D4902).

[4] = tested on: HUES8 cells, exocrine differentiation protocol; experiment: Exocrine pancreas differentiation with cytoskeletal compounds; details: 1 μM for the entirety of stage 4
Experimental: as §1
Exocrine Pancreas: Stage 2 (2 days): BE2 media+50 ng/mL KGF. Stage 3 (2 days): BE3+50 ng/mL KGF, 200 nM LDN193189, 500 nM TPPB, 2 μM retinoic acid, and 0.25 μM SANT1. Stage 4 (4 days): BE3+50 ng/mL KGF, 200 nM LDN193189, 500 nM TPPB, 0.1 μM retinoic acid, and 0.25 μM SANT1. Either 1 μM latrunculin A was added for the first 24 hours of this stage, or 1 μM nocodazole was added for the entirety of stage 4. Stage 5 (6 days): S5 media+10 ng/mL bFGF. 10 mM nicotinamide (MilliporeSigma, 72340) was added for the last two days.

TGFBR1 = experiment: Lentiviral shRNA knockdown of TGFBR1 in Stage 6 cells; details: real-time PCR
Experimental: TBP was used as a normalization gene.
pLKO.1 TRC plasmids containing shRNA sequences contained the following sequences: shRNA GFP, […] (SEQ ID NO: 89); shRNA TGFBR1 #1, […] (SEQ ID NO: 90); shRNA TGFBR1 #2, […] (SEQ ID NO: 91). Lentivirus particles were generated and titered using pMD-Lgp/RRE and pCMV-G, and RSV-REV packaging plasmids to contain shRNA. Stage 6 Day 1 cells were single cell dispersed using TrypLE, and 3 million cells were seeded in 4 mL ESFM lentivirus particles at MOI 3-5 on the shaker. Transduced cells were washed with fresh ESFM 16 hr post transduction. RNA extraction and static GSIS was performed on stage 6 day 13.

[5] = tested on: TGFβ signaling (phosphorylated SMAD); experiment: Western blot of SMAD 2/3 phosphorylation in Stage 6 cells; details: lesser extent than Alk5i
Experimental: Protein was extracted from cell clusters after washing with PBS by placing in western blot lysis buffer consisting 50 mM HEPES, 140 mM NaCl (MilliporeSigma; 7647-14-5), 1 mM EDTA (MilliporeSigma, 1233508), 1% Triton X-100, 0.1% Na-deoxycholate (MilliporeSigma: D6750), 0.1% SDS (ThermoScientific; 24730020), 1 mM Na3VO4 (MilliporeSigma; 450243), 10 mM NaF (MilliporeSigma; S7920), and 1% Protease Inhibitor Cocktail (MilliporeSigma; p8340), incubating on a shaker for 15 min at 4° C., and centrifuging at 10000 RCF for 10 min at 4° C. Protein amount was quantified with the Pierce BCA Protein Assay (Thermo Scientific; 23228). Protein (30 μg) was loaded onto a 4-20% gradient polyacrylamide gel (Invitrogen; SP04200BOX), resolved by electrophoresis, and transferred onto a 0.45 μm nitrocellulose membrane (BioRad; 1620115). The nitrocellulose membrane was blocked with Blotting Grade Blocker (BioRad; 170-6404) and incubated with rabbit-anti-phospho-SMAD⅔ 1:1000 (Cell Signaling Technologies; 8828) and rabbit-anti-Actin 1:1000 (Santa Cruz Biotechnology; SC1616) antibodies in blocker overnight at 4° C. Membrane was washed and stained with rabbit secondary antibody 1:2500 (Jackson Immuno Research Laboratories; 211-032-171) in blocker for 2 hr at 4° C. and developed using SuperSignal West Femto (Thermo Scientific; 34096). Images were taken on an Odyssey FC (Li-COR). After imaging, the nitrocellulose membrane was stripped using Restore Western Blot Stripping Buffer (Thermo Scientific; 21059), incubated with rabbit-anti-SMAD⅔ (Cell Signaling Technologies; 8685) antibody overnight at 4° C., washed and stained with rabbit secondary antibody 1:2500 in blocker for 2 hr 4° C., developed using SuperSignal West Femto, and imaged using the Odyssey FC.

| Compound | CDX2 gene expression and immunostaining [1] | percentage of exocrine-like progenitors [2] [%] | hepatocyte gene expression [3] | immunostaining for albumin [3] | endocrine induction [4] | trypsin gene expression (PRSS1, PRSS2) and immunostaining [4] | TGFBR1 transcript compared to control virus targeting GFP (TGFBR1) | SMAD phosphorylation after shRNA transduction [5] |
| --- | --- | --- | --- | --- | --- | --- | --- | --- |
| COC(=O)Nc1nc2ccc(C(=O)c3cccs3)cc2[nH]1 [nocodazole] | greatly increased CDX2 gene expression and immunostaining | 67.0 | increased hepatocyte gene expression | more abundant with nocodazole treatment | inhibited endocrine induction | greatly increased trypsin gene expression |  |  |
| TGFBR1 #2: lentivirus carrying shRNA against TGFBR1, GCAGGATTCTTTAGGCTTTAT (SEQ ID NO: 91) |  |  |  |  |  |  | reducing TGFBR1 transcript | reduced SMAD phosphorylation |
| TGFBR1 #1: lentivirus carrying shRNA against TGFBR1, GATCATGATTACTGTCGATAA (SEQ ID NO: 90) |  |  |  |  |  |  | reducing TGFBR1 transcript | reduced SMAD phosphorylation |

Reference: patent publication US20210207099A1, “METHODS AND COMPOSITIONS FOR GENERATING CELLS OF ENDODERMAL LINEAGE AND BETA CELLS AND USES THEREOF” (priority 2018, published 2021)
